Experimental data as given in paper PMC5514153, “Targeting PTPRZ inhibits stem cell-like properties and tumorigenicity in glioblastoma cells” (Scientific Reports, 2017).

Target: T1, hPTPRA (Homo sapiens, UniProt P18433)
T1 construct: Recombinant proteins corresponding to the entire intracellular regions (ICRs) of PTPRZ1, PTPRA, and PTPRM; made in house; host or cells: baculovirus-silkworm expression system
Assay: In vitro PTPase assay (DiFMUP), PTPRA
Assay type: biochemical
Conditions: 60-min preincubation
Procedure: Figure 4 NAZ2329, an allosteric inhibitor of R5 RPTP subfamily members. (A) Structure of NAZ2329. (B) Effect of preincubation of NAZ2329 on its inhibitory activity against PTPRZ. Recombinant human PTPRZ1 enzyme (the whole intracellular region) was premixed with NAZ2329 for the indicated times and followed by addition of a fluorogenic DiFMUP (non-specific PTP substrate, 6,8-difluoro-4-methylumbiliferyl phosphate) to measure PTP inhibitory activity. (C) Time dependence. The PTPRZ1 enzyme was added to the inhibitor–substrate mixture, and the inhibitory activity was determined at each time point relative to the vehicle control. (D) Reversibility of inhibition. […] The mixture was then 20-fold diluted, and recovered PTP activity was expressed as the relative activity compared with the vehicle-treated enzyme. […] PTPRZ1 enzymes were preincubated with NAZ2329 for 60 min, and the PTP activity was measured using DiFMUP. […]
Recombinant proteins corresponding to the entire intracellular regions (ICRs) of PTPRZ1, PTPRA, and PTPRM were expressed using a baculovirus-silkworm expression system, and purified as described. The ICRs of PTPRG, PTPRS, and PTPRB and the catalytic domains of PTPN1 and PTPN6 were expressed as glutathione-S-transferase (GST) fusion proteins from each pGEX plasmid in Escherichia coli strain BL21 (ref. [6]). […]

IC50: 35.7 µM
SMILES: CCOc1ccc(C(F)(F)F)cc1CSc1ccsc1C(=O)NS(=O)(=O)c1ccccc1 [NAZ2329]
